From the supplement of paper PMC10307832

Legend:
Assay in all cases: relative viability (nuclei count vs DMSO), 5 days (fraction); higher = more cells survive
Ispinesib + Tozasertib = compound: Cc1ccc(C(=O)N(CCCN)[C@@H](c2nc3cc(Cl)ccc3c(=O)n2Cc2ccccc2)C(C)C)cc1 [Ispinesib] + Cc1cc(Nc2cc(N3CCN(C)CC3)nc(Sc3ccc(NC(=O)C4CC4)cc3)n2)n[nH]1 [Tozasertib] (partner 0.1 µM)
Method in brief: (§1)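 Lung cancer cell lines were pin-tool dosed in 1536-well plates on the day after seeding, with either a lone drug or a fixed anchor-drug dose plus five library-drug doses (not always all listed) in √10 steps. Nuclei were counted on 4× images after 5 days. Relative viability is the ratio of treated-well to vehicle-well nuclei counts, with each value a median of duplicate plates.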

Linsitinib + Lapatinib = compound: C[C@]1(O)C[C@@H](c2nc(-c3ccc4ccc(-c5ccccc5)nc4c3)c3c(N)nccn32)C1 [Linsitinib] + CS(=O)(=O)CCNCc1ccc(-c2ccc3ncnc(Nc4ccc(OCc5cccc(F)c5)c(Cl)c4)c3c2)o1 [Lapatinib] (partner 2 µM)
Method in brief: as §1

Linsitinib + Olaparib = compound: C[C@]1(O)C[C@@H](c2nc(-c3ccc4ccc(-c5ccccc5)nc4c3)c3c(N)nccn32)C1 [Linsitinib] + O=C(c1cc(Cc2n[nH]c(=O)c3ccccc23)ccc1F)N1CCN(C(=O)C2CC2)CC1 [Olaparib] (partner 8 µM)
Method in brief: as §1

Ispinesib + Pictilisib = compound: Cc1ccc(C(=O)N(CCCN)[C@@H](c2nc3cc(Cl)ccc3c(=O)n2Cc2ccccc2)C(C)C)cc1 [Ispinesib] + CS(=O)(=O)N1CCN(Cc2cc3nc(-c4cccc5[nH]ncc45)nc(N4CCOCC4)c3s2)CC1 [Pictilisib] (partner 1 µM)
Method in brief: as §1

| Cell Line | relative viability (Ispinesib + Tozasertib; first compound 0.001 µM) | relative viability (Ispinesib + Tozasertib; first compound 0.003162 µM) | relative viability (Ispinesib + Tozasertib; first compound 0.01 µM) | relative viability (Ispinesib + Tozasertib; first compound 0.03162 µM) | relative viability (Ispinesib + Tozasertib; first compound 0.1 µM) | relative viability (Linsitinib + Lapatinib; first compound 0.01 µM) | relative viability (Linsitinib + Lapatinib; first compound 0.03162 µM) | relative viability (Linsitinib + Lapatinib; first compound 0.1 µM) | relative viability (Linsitinib + Lapatinib; first compound 0.3162 µM) | relative viability (Linsitinib + Lapatinib; first compound 1 µM) | relative viability (Linsitinib + Olaparib; first compound 0.01 µM) | relative viability (Linsitinib + Olaparib; first compound 0.03162 µM) | relative viability (Linsitinib + Olaparib; first compound 0.1 µM) | relative viability (Linsitinib + Olaparib; first compound 0.3162 µM) | relative viability (Linsitinib + Olaparib; first compound 1 µM) | relative viability (Ispinesib + Pictilisib; first compound 0.001 µM) | relative viability (Ispinesib + Pictilisib; first compound 0.003162 µM) | relative viability (Ispinesib + Pictilisib; first compound 0.01 µM) | relative viability (Ispinesib + Pictilisib; first compound 0.03162 µM) | relative viability (Ispinesib + Pictilisib; first compound 0.1 µM) |
| --- | --- | --- | --- | --- | --- | --- | --- | --- | --- | --- | --- | --- | --- | --- | --- | --- | --- | --- | --- | --- |
| NCI-H1437 | 0.449 | 0.442 | 0.434 | 0.378 | 0.272 | 0.758 | 0.787 | 0.811 | 0.551 | 0.715 | 0.636 | 0.632 | 0.667 | 0.636 | 0.584 | 0.46 | 0.48 | 0.477 | 0.393 | 0.207 |
| SK-LU-1 | 0.393 | 0.335 | 0.31 | 0.288 | 0.289 | 0.889 | 0.902 | 0.987 |  | 0.815 | 0.428 | 0.419 | 0.552 | 0.41 | 0.468 | 0.556 | 0.65 | 0.674 | 0.301 | 0.354 |
| NCI-H838 | 0.275 | 0.285 | 0.284 | 0.287 | 0.257 | 0.963 | 0.929 | 0.883 | 0.286 | 0.591 | 0.754 | 0.722 | 0.73 | 0.482 | 0.533 | 0.451 | 0.494 | 0.544 | 0.392 | 0.257 |
| NCI-H1755 | 0.529 | 0.627 | 0.595 | 0.638 | 0.46 | 1.01 | 1.02 | 1.04 | 0.54 | 0.876 | 0.893 | 0.887 | 0.9 | 0.699 | 0.753 | 0.403 | 0.464 | 0.534 | 0.22 | 0.194 |
| NCI-H2228 | 0.299 | 0.28 | 0.236 | 0.152 | 0.365 | 0.978 | 0.839 | 1.08 | 0.663 | 0.8 | 0.763 | 0.601 | 0.735 | 0.379 | 0.477 | 0.483 | 0.554 | 0.469 | 0.319 | 0.264 |
| NCI-H1915 | 0.444 | 0.528 | 0.498 | 0.462 | 0.315 | 0.984 | 1.01 | 0.981 | 0.608 | 0.723 | 0.238 | 0.221 | 0.243 | 0.225 | 0.237 | 0.969 | 1.07 | 0.977 | 0.532 | 0.232 |
| NCI-H2347 | 0.529 | 0.545 | 0.65 | 0.55 | 0.52 | 0.821 | 0.998 | 0.969 | 0.461 | 0.772 | 0.584 | 0.687 | 0.598 | 0.608 | 0.596 | 0.798 | 0.92 | 0.592 | 0.523 | 0.419 |
| HARA | 0.151 | 0.115 | 0.332 | 0.0895 | 0.107 | 0.598 | 0.746 | 0.739 | 0.671 | 0.329 | 0.631 | 0.396 | 0.69 |  | 0.935 | 0.445 | 0.43 | 0.392 | 0.467 | 0.179 |
